Counter-ions that a name gives are not always drawn.
The molecules below were run against T1, human TRPC6 (Homo sapiens, UniProt Q9Y210) (assay: TRPC6 calcium flux assay (FLIPR, OAG-stimulated calcium influx)). Details: HEK293 cells stably transfected with human TRPC6, read-out: hTRPC6 Potency.
T1 construct: expressed in transfected cells
T1 sequence (Q9Y210 1-931): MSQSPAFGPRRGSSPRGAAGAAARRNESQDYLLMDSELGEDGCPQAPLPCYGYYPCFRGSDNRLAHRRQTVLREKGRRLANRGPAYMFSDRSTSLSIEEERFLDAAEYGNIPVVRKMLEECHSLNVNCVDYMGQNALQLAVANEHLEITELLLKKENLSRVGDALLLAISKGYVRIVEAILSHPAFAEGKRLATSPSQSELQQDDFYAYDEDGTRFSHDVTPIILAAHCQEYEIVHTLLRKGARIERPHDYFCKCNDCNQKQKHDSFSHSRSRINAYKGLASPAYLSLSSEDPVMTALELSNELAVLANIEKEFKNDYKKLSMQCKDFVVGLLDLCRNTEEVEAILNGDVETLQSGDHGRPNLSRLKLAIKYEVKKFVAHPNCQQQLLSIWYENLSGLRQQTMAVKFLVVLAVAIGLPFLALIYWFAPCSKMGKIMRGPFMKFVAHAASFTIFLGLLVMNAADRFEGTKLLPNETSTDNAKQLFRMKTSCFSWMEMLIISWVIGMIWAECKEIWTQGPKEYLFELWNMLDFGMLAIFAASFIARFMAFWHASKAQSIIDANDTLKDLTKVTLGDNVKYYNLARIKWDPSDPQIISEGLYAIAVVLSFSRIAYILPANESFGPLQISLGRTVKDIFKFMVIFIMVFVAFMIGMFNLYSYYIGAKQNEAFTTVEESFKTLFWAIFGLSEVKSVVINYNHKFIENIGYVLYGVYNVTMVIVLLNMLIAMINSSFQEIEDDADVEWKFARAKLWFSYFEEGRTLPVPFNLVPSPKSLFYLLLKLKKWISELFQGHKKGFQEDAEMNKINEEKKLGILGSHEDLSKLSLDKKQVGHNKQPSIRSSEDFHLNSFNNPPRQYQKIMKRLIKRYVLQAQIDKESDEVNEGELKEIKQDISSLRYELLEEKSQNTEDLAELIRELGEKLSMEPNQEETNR
Format: cell-based
Summary of the method: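 IC50 derived by plotting background-corrected peak fluorescence (180 s window, normalized to OAG-triggered signal vs buffer) against dose. Stable human TRPC6 HEK293 line was dye-loaded, exposed to compound 25 min, then challenged with 50 uM final OAG in 2 mM Ca2+ HEPES buffer pH 7.2, 0.5% DMSO.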

Question: With `CS(=O)(=O)c1ccc2nc(N3CC[C@@H](F)[C@H](N)C3)n(Cc3ccc(Cl)cn3)c2c1` [Example 29, (3R,4R)-1-(1-((5-chloropyridin-2-yl)methyl)-6-(methylsulfonyl)-1H-benzo[d]imidazol-2-yl)-4-fluoropiperidin-3-amine] as the molecule, how does the IC50 read?
Answer: 44.8 nM

Question: Which IC50 does the source give for `CN(C)S(=O)(=O)c1ccc(Cn2c(N3CCC[C@@H](N)C3)nc3ccccc32)cc1` [Example 385, (R)-4-((2-(3-aminopiperidin-1-yl)-1H-benzo[d]imidazol-1-yl)methyl)-N,N-dimethylbenzenesulfon-amide] here?
Answer: > 50000 nM

Question: With `N#Cc1ccc(Cn2c(N3CCC(F)(F)[C@H](N)C3)nc3cc(Cl)ccc32)nc1` [Example 13, (R)-6-((2-(3-amino-4,4-difluoropiperidin-1-yl)-5-chloro-1H-benzo[d]imidazol-1-yl)methyl)nicotinonitrile] as the molecule, how does the IC50 read?
Answer: 6.87 nM

Question: For `N[C@@H]1CN(c2nc3cc(F)c(F)cc3n2CC(=O)N2CCCC(O)C2)CC[C@H]1F` (mixture of isomers) [Example 628, 2-(2-((3R,4R)-3-amino-4-fluoropiperidin-1-yl)-5,6-difluoro-1H-benzo[d]imidazol-1-yl)-1-(3-hydroxypiperidin-1-yl)ethanone], which IC50 is on record?
Answer: 132 nM

Question: How did the IC50 turn out when `N[C@@H]1CN(c2nc3cc(F)c(F)cc3n2CC(=O)N2CCOCC2)CC[C@H]1F` [Example 276, 2-(2-((3R,4R)-3-amino-4-fluoro-1-piperidinyl)-5,6-difluoro-1H-benzimidazol-1-yl)-1-(4-morpholinyl)ethanone] was run?
Answer: 42.2 nM

Question: With `N#Cc1ccc(Cn2c(N3CC[C@@H](F)[C@H](N)C3)nc3cc(F)c(C(F)(F)F)cc32)nc1` [Example 22, 6-((2-((3R,4R)-3-amino-4-fluoropiperidin-1-yl)-5-fluoro-6-(trifluoromethyl)-1H-benzo[d]imidazol-1-yl)methyl)nicotinonitrile] as the molecule, how does the IC50 read?
Answer: 1.62 nM

Question: For `N#Cc1ccc(Cn2c(N3CC[C@H]4OCCN[C@@H]4C3)nc3ccccc32)nc1` [Example 131, 6-((2-((4aR,8aR)-hexahydro-2H-pyrido[4,3-b][1,4]oxazin-6(5H)-yl)-1H-benzimidazol-1-yl)methyl)-3-pyridinecarbonitrile], which IC50 is on record?
Answer: 82.6 nM

Question: Which IC50 does the source give for `COc1cnc(Cn2c(N3CC[C@@H](F)[C@H](N)C3)nc3cc(F)ccc32)nc1` [Example 446, (3R,4R)-4-fluoro-1-(5-fluoro-1-((5-methoxypyrimidin-2-yl)methyl)-1H-benzo[d]imidazol-2-yl)piperidin-3-amine] here?
Answer: 34 nM

Question: For `N[C@@H]1CCCN(c2nc3ccccc3n2Cc2ccc3ccncc3c2)C1` [Example 293, (R)-1-(1-(isoquinolin-7-ylmethyl)-1H-benzo[d]imidazol-2-yl)piperidin-3-amine], which IC50 is on record?
Answer: 2920 nM

Question: How did the IC50 turn out when `Cc1nc(-c2ccccc2)sc1Cn1c(N2CC[C@@H](F)[C@H](N)C2)nc2ccc(F)cc21` [Example 585, (3R,4R)-4-fluoro-1-(6-fluoro-1-((4-methyl-2-phenylthiazol-5-yl)methyl)-1H-benzo[d]imidazol-2-yl)piperidin-3-amine] was run?
Answer: 579 nM

Question: `CN(CC(F)(F)F)C(=O)Cn1c(N2CC[C@@H](F)[C@H](N)C2)nc2cc(F)ccc21` [Example 460, 2-(2-((3R,4R)-3-amino-4-fluoropiperidin-1-yl)-5-fluoro-1H-benzo[d]imidazol-1-yl)-N-methyl-N-(2,2,2-trifluoroethyl)acetamide] was tested. Which IC50 did it give?
Answer: 24.2 nM

Question: Which IC50 does the source give for `N[C@@H]1CN(c2nc3cc(F)c(F)cc3n2Cc2ccc(Cl)cc2Cl)CC[C@H]1F` [Example 341, (3R,4R)-1-(1-(2,4-dichlorobenzyl)-5,6-difluoro-1H-benzimidazol-2-yl)-4-fluoro-3-piperidinamine] here?
Answer: 25.8 nM

Question: With `N[C@@H]1CN(c2nc3cc(F)c(F)cc3n2Cc2cc(Cl)ccc2Cl)CC[C@H]1F` [Example 343, (3R,4R)-1-(1-(2,5-dichlorobenzyl)-5,6-difluoro-1H-benzimidazol-2-yl)-4-fluoro-3-piperidinamine] as the molecule, how does the IC50 read?
Answer: 804 nM

Question: Which IC50 does the source give for `CCC1CN(C(=O)Cn2c(N3CC[C@@H](F)[C@H](N)C3)nc3cc(F)c(F)cc32)CCO1` (stereo partly drawn) [Example 518, 2-(2-((3R,4R)-3-amino-4-fluoropiperidin-1-yl)-5,6-difluoro-1H-benzo[d]imidazol-1-yl)-1-(2-ethylmorpholino)ethan-1-one] here?
Answer: 400 nM

Question: With `N#Cc1ccc(Cn2c(N3CC[C@H](F)[C@H](N)C3)nc3ccc(C#N)cc32)nc1` [Example 68, 2-((3R,4S)-3-amino-4-fluoropiperidin-1-yl)-1-((5-cyanopyridin-2-yl)methyl)-1H-benzo[d]imidazole-6-carbonitrile] as the molecule, how does the IC50 read?
Answer: 1.82 nM

Question: With `Cc1nnc(Cn2c(N3CC[C@@H](F)[C@H](N)C3)nc3cc(F)c(F)cc32)o1` [Example 571, (3R,4R)-1-(5,6-difluoro-1-((5-methyl-1,3,4-oxadiazol-2-yl)methyl)-1H-benzo[d]imidazol-2-yl)-4-fluoropiperidin-3-amine] as the molecule, how does the IC50 read?
Answer: 93.2 nM

Question: With `N[C@@H]1CN(c2nc3cc(F)c(F)cc3n2C2CCN(c3ccc(Cl)cc3)C2=O)CC[C@H]1F` (mixture of isomers) [Example 240, 3-(2-((3R,4R)-3-amino-4-fluoropiperidin-1-yl)-5,6-difluoro-1H-benzo[d]imidazol-1-yl)-1-(4-chlorophenyl)pyrrolidin-2-one] as the molecule, how does the IC50 read?
Answer: 10.7 nM

Question: How did the IC50 turn out when `N[C@@H]1CN(c2nc3ccccc3n2Cc2ncc(F)cn2)CC[C@H]1F` [Example 188, (3R,4R)-4-fluoro-1-(1-((5-fluoropyrimidin-2-yl)methyl)-1H-benzo[d]imidazol-2-yl)piperidin-3-amine] was run?
Answer: 13 nM

Question: How did the IC50 turn out when `COc1ccc2c(c1)nc(N1CC[C@@H](F)[C@H](N)C1)n2Cc1ccc(C#N)cn1` [Example 145, 6-((2-((3R,4R)-3-amino-4-fluoropiperidin-1-yl)-5-methoxy-1H-benzo[d]imidazol-1-yl)methyl)nicotinonitrile hydrochloride] was run?
Answer: 14 nM

Question: How did the IC50 turn out when `C[C@H](NC(=O)Cn1c(N2CC[C@@H](F)[C@H](N)C2)nc2ccc(F)cc21)c1ccccn1` [Example 666, 2-(2-((3R,4R)-3-amino-4-fluoropiperidin-1-yl)-6-fluoro-1H-benzo[d]imidazol-1-yl)-N-((S)-1-(pyridin-2-yl)ethyl)acetamide] was run?
Answer: 687 nM

Question: `N[C@@H]1CN(c2nc3cc(F)c(F)cc3n2CC(=O)N2CCC(C(=O)N3CCCCCC3)CC2)CC[C@H]1F` [Example 537, 2-(2-((3R,4R)-3-amino-4-fluoropiperidin-1-yl)-5,6-difluoro-1H-benzo[d]imidazol-1-yl)-1-(4-(azepane-1-carbonyl)piperidin-1-yl)ethan-1-one] was tested. Which IC50 did it give?
Answer: > 1750 nM

Question: How did the IC50 turn out when `N#Cc1ccc(Cn2c(N3CC[C@@H](F)[C@H](N)C3)nc3c(Cl)cc(Cl)cc32)nc1` [Example 58, 6-((2-((3R,4R)-3-amino-4-fluoropiperidin-1-yl)-4,6-dichloro-1H-benzo[d]imidazol-1-yl)methyl)nicotinonitrile] was run?
Answer: 0.469 nM

Question: With `CN[C@@H]1CN(c2nc3ccc(C#N)cc3n2Cc2ncc(Cl)cn2)CC[C@H]1F` [Example 283, 1-((5-chloro-2-pyrimidinyl)methyl)-2-((3R,4R)-4-fluoro-3-(methylamino)-1-piperidinyl)-1H-benzimidazole-6-carbonitrile] as the molecule, how does the IC50 read?
Answer: 23.8 nM

Question: Which IC50 does the source give for `N#Cc1ccc(Cn2c(N3C[C@@H](N)CC(F)(F)C3)nc3ccccc32)nc1` [Example 17, (S)-6-((2-(5-amino-3,3-difluoropiperidin-1-yl)-1H-benzo[d]imidazol-1-yl)methyl)nicotinonitrile] here?
Answer: 118 nM

Question: `COc1ccc2nc(N3CC[C@H](F)[C@H](N)C3)n(Cc3ccc(C#N)cn3)c2c1` [Example 147, 6-((2-((3R,4S)-3-amino-4-fluoropiperidin-1-yl)-6-methoxy-1H-benzo[d]imidazol-1-yl)methyl)nicotinonitrile hydrochloride] was tested. Which IC50 did it give?
Answer: 0.433 nM

Question: With `N[C@@H]1CN(c2nc3cc(Cl)ccc3n2CC(=O)N2CCOCC2)CC[C@H]1F` [Example 497, -(2-((3R,4R)-3-amino-4-fluoropiperidin-1-yl)-5-chloro-1H-benzo[d]imidazol-1-yl)-1-morpholinoethanone] as the molecule, how does the IC50 read?
Answer: 94 nM

Question: `N#Cc1ccc(Cn2c(N3CC[C@@H](O)[C@H](N)C3)nc3cc(F)ccc32)nc1` [Example 208, 6-((2-((3R,4R)-3-amino-4-hydroxypiperidin-1-yl)-5-fluoro-1H-benzo[d]imidazol-1-yl)methyl)nicotinonitrile] was tested. Which IC50 did it give?
Answer: 47.7 nM

Question: With `N#Cc1ccc(Cn2c(N3CC[C@@H](F)[C@H](N)C3)nc3cc(C#N)ccc32)nc1` [Example 54, 2-((3R,4R)-3-amino-4-fluoropiperidin-1-yl)-1-((5-cyanopyridin-2-yl)methyl)-1H-benzo[d]imidazole-5-carbonitrile] as the molecule, how does the IC50 read?
Answer: 5.52 nM
